From US11891405B2, “Furo[3,4-b]pyrrole-containing BTK inhibitor” (CHIA TAI TIANQING PHARMACEUTICAL GROUP CO., LTD., priority 2018, dated 2024) come the findings set out here.

The nature of the data set: In vivo pharmacokinetic assay on mouse. To be noted: ICR mice; for MRT last: read-out: MRT(0-t). On the procedure: EXPERIMENTAL EXAMPLE 4: IN VIVO PHARMACOKINETIC ASSAY ON MOUSE
ICR mice weighing 18-22 g were randomly grouped into 9 mice in each group after being fed for 3-5 days, and administered intragastrically with related compound at a dose of 10 mg/kg, and injected intravenously with the test compound at a dose of 1 mg/kg, respectively. The test animals (ICR mice) were fasted for 12 h before administration and fed for 4 h after administration, and water was freely drunk before and after the experiment and during the experiment. After intragastric administration, 0.1 mL of the blood at the orbit was collected at 0.25 h (15 min), 0.5 h (30 min), 1 h, 2 h, 4 h, 6 h, 8 h, 10 h and 24 h, and after intravenous injection, 0.1 mL of the blood at the orbit was collected at 0.083 h (5 min), 0.167 h (10 min), 0.5 h (30 min), 1 h, 2 h, 6 h, 8 h, 10 h and 24 h. Each mouse was sampled at 3-4 time points, and 3 mice were sampled at each time point. Whole blood was collected and placed in centrifuge tubes containing EDTA-K2 and sodium fluoride, then transferred to a 4° C. centrifuge within 30 min and centrifuged at 4000 rpm for 10 min to separate the plasma. All plasma was collected and immediately stored at −20° C. for testing. 20 μL of a plasma test sample and a standard curve sample were pipetted into 300 μL of acetonitrile solution containing an internal standard (diazepam […]), and the mixture was shaken and mixed for 5 min, and centrifuged at 13,000 rpm for 10 min. 80 μL of supernatant was diluted with 80 μL of ultrapure water, and the mixture was mixed well, form which 1 μL of the sample was pipetted and analyzed by LC/MS/MS, and a chromatogram was recorded. Oral and intravenous exposure of the compounds disclosed herein was evaluated by pharmacokinetic experiments in mice and the results are shown in Table 4.

Where two headings read alike, the source gives them in different places.

Take `CC#CC(=O)N1[C@@H]2COC[C@@H]2C[C@H]1c1nc(-c2ccc(C(=O)Nc3ccccn3)cc2)c2c(N)nccn12` [Compound I-1, 4-(8-amino-3-((2S,3aR,6aS)-1-(but-2-ynoyl)hexahydro-1H-furo[3,4-b]pyrrol-2-yl)imidazo [1,5-a]pyrazin-1-yl)-N-(pyridin-2-yl)benzamide]: the t1/2z (ig 10 mg/kg) is 142 min. Besides, where the note is “iv 1 mg/kg”, the CLz worked out at 340 mL/min/kg and the t1/2z turned out to be 43.8 min. Where the note is “mouse, plasma, oral, ig 10 mg/kg vs iv 1 mg/kg, read-out: Absolute bioavailability F %”, the bioavailability was 72.4%. Moreover, where the note is “mouse, plasma, po, ig 10 mg/kg”, the AUC(0-inf) worked out at 315 ng·h/mL, the area under the curve AUC(0-t) is 315 ng·h/mL, the Cmax worked out at 92.7 ng/mL and the Tmax amounted to 15 min. Moreover, the MRT last (mouse, plasma, po, ig 10 mg/kg) stood at 184 min. For the setting “mouse, plasma, iv 1 mg/kg”, the AUC(0-inf) is 43.6 ng·h/mL, the AUC(0-t) is 43.6 ng·h/mL and the MRT last was 31.2 min. Moreover, the Vd (mouse, plasma, iv 1 mg/kg, read-out: Vz) was determined as 21.5 L/kg.
